Results on six compounds are retold here after patent US10829490B2, “Substituted dihydropyrazino[1 ′,2′:1,5]pyrrolo[2,3-d]pyrimidine-based antiproliferative agents” (G1 Therapeutics, Inc., priority 2016, dated 2020).

One test concerns the target CDK2/CyclinA (Homo sapiens (Human), UniProt P24941). As to the kind of experiment: CDK2/CycA kinase assay, microfluidic kinase detection (Caliper, Nanosyn). It counts as biochemical. Particulars: 12-point dose-response, ATP at Km (50 μM), enzyme 0.2 nM, incubation 3 hr; read-out: CDK2/Cyclin A. On the procedure: (§1) Selected compounds disclosed herein were tested in CDK4/cyclinD1, CDK2/CycA and CDK2/cyclinE kinase assays by Nanosyn (Santa Clara, Calif.) to determine their inhibitory effect on these CDKs. The assays were performed using microfluidic kinase detection technology (Caliper Assay Platform). The compounds were tested in 12-point dose-response format in singlicate at Km for ATP. Phosphoacceptor substrate peptide concentration used was 1 μM for all assays and Staurosporine was used as the reference compound for all assays. Specifics of each assay are as described below:
CDK2/CyclinA: Enzyme concentration: 0.2 nM; ATP concentration: 50 μM; Incubation time: 3 hr.

In the next test the target is CDK2/CyclinE (Homo sapiens (Human), UniProt P24941). As to the kind of experiment: CDK2/cyclinE kinase assay, microfluidic kinase detection (Caliper, Nanosyn). The test is classed as biochemical. Particulars: 12-point dose-response, ATP at Km (100 μM), enzyme 0.28 nM, incubation 1 hr; read-out: CDK2/Cyclin E. Here is the method: as §1
CDK2/CyclinE: Enzyme concentration: 0.28 nM; ATP concentration: 100 μM; Incubation time: 1 hr.

The subject of a further test is Hs68 cells. As to the kind of experiment: Cell population by DNA content (<2N, G0-G1, S, G2-M) as measure of apoptotic cells. Particulars: at every dose administered (FIG. 4). It counts as cell-based. The text has this:
FIG. 4 is a bar graph showing the population of cells with a DNA content less than 2N, cells in the G0-G1 phase, cells in the S phase, and cells in the G2-M phase as a way to measure the relative amount of apoptotic cells following administration of control and Compound 28. The population of apoptotic cells after exposure to Compound 28 was greater than 70% at every dose administered. The assay was done in a population of Hs68 cells. * is <2000 events. The Compound number and dose, measured in μM and nM, are shown on the x-axis and the cell population, measured in percent, is shown on the y-axis.

In another test the target is CDK6/Cyclin D3 (Homo sapiens (Human), UniProt Q00534). Briefly: CDK6/Cyclin D3 kinase assay (Biological Table 3). It counts as biochemical. On the procedure: [Worded in the source for another target; this target is reported under the same test.] Selected compounds disclosed herein were tested in CDK4/cyclinD1, CDK2/CycA and CDK2/cyclinE kinase assays by Nanosyn (Santa Clara, Calif.) to determine their inhibitory effect on these CDKs. The assays were performed using microfluidic kinase detection technology (Caliper Assay Platform). The compounds were tested in 12-point dose-response format in singlicate at Km for ATP. Phosphoacceptor substrate peptide concentration used was 1 μM for all assays and Staurosporine was used as the reference compound for all assays.
Chain of CDK6/Cyclin D3 (Q00534 whole entry): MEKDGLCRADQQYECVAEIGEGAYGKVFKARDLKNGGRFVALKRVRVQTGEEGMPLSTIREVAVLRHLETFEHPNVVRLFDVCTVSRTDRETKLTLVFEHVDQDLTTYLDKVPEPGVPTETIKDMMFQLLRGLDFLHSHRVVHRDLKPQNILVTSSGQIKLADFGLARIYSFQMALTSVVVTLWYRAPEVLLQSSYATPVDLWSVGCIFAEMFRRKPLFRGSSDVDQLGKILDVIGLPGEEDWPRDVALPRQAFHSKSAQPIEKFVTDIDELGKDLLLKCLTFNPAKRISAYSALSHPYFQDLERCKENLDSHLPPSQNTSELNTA
Chain of CDK6/Cyclin D3 (P30281 whole entry partner): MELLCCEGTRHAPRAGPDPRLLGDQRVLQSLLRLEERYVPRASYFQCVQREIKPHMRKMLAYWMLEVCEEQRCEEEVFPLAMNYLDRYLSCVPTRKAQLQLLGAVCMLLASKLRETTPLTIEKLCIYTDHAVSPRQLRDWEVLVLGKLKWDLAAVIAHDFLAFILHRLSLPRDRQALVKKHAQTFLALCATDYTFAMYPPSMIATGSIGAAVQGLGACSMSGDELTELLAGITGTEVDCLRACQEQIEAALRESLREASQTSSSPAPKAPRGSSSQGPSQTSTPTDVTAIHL

In the next test the target is CDK4/CyclinD1 (Homo sapiens (Human), UniProt P11802). Briefly: CDK4/cyclinD1 kinase assay, microfluidic kinase detection (Caliper, Nanosyn). It counts as biochemical. Particulars: 12-point dose-response, ATP at Km (200 μM), enzyme 1 nM, incubation 10 hr; read-out: CDK4/Cyclin D1. On the procedure: as §1
Chain of CDK4/CyclinD1 (P11802 whole entry): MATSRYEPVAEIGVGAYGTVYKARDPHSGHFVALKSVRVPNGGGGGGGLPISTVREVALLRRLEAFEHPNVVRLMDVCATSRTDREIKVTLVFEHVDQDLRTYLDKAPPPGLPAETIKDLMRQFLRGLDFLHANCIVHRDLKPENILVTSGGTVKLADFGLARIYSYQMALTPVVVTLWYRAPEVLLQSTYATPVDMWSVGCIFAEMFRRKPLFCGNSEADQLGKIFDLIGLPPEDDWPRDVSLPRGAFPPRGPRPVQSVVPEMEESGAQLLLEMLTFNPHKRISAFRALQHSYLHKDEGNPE
Chain of CDK4/CyclinD1 (P24385 whole entry partner): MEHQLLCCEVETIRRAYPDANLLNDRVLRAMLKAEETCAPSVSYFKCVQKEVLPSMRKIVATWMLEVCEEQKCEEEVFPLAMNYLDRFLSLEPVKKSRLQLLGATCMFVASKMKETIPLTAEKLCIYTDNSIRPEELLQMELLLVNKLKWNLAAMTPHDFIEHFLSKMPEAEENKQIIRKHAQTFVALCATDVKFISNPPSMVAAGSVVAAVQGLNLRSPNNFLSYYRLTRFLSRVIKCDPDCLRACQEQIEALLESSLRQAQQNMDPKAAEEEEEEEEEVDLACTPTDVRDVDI
CDK4/CyclinD1: Enzyme concentration: 1 nM; ATP concentration: 200 μM; Incubation time: 10 hr.

In another test the target is CDK9/Cyclin T (Homo sapiens (Human), UniProt P50750). Briefly: CDK9/Cyclin T kinase assay (Biological Table 3). The test is classed as biochemical.
Chain of CDK9/Cyclin T (P50750 whole entry): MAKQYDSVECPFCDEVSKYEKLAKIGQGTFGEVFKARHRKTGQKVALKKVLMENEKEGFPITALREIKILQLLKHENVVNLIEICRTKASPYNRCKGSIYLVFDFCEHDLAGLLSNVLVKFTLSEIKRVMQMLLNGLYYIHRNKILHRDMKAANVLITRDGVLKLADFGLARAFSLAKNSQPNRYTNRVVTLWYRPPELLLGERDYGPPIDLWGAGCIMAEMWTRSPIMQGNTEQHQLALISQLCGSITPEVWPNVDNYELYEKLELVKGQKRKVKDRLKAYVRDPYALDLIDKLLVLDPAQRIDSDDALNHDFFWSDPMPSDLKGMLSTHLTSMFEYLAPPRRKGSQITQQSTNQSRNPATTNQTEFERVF
Chain of CDK9/Cyclin T (O60563 whole entry partner): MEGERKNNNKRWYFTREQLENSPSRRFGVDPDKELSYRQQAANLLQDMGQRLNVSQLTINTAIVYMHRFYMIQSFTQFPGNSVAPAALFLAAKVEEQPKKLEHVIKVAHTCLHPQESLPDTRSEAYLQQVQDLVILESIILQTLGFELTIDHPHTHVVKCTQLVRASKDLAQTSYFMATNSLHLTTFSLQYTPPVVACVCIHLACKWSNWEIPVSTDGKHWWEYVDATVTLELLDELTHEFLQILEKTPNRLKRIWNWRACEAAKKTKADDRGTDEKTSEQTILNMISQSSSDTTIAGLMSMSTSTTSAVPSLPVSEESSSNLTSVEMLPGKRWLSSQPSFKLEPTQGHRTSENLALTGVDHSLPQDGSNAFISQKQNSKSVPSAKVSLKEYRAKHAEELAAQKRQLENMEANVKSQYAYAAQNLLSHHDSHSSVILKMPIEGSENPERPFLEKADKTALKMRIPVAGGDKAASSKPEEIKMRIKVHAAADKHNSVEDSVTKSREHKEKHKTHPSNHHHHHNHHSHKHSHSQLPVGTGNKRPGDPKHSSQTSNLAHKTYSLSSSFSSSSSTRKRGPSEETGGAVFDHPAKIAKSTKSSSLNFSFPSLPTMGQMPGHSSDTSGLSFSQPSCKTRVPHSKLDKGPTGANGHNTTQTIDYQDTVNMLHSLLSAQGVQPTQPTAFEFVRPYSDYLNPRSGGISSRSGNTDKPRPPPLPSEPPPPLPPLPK
The next test has as its target CDK9/CycT (Homo sapiens (Human), UniProt P50750). Briefly: CDK9/CycT kinase inhibition (Biological Table 2). The test is classed as biochemical.
For a further test, the target named is CDK2/CycE (Homo sapiens (Human), UniProt P24941). Briefly: CDK2/CycE kinase inhibition (Biological Table 1). It counts as biochemical.
The target of the next test is CDK5/p35 (Homo sapiens (Human), UniProt Q00535). Briefly: CDK5/p35 kinase inhibition (Biological Table 1). The test is classed as biochemical.
Chain of CDK5/p35 (Q00535 whole entry): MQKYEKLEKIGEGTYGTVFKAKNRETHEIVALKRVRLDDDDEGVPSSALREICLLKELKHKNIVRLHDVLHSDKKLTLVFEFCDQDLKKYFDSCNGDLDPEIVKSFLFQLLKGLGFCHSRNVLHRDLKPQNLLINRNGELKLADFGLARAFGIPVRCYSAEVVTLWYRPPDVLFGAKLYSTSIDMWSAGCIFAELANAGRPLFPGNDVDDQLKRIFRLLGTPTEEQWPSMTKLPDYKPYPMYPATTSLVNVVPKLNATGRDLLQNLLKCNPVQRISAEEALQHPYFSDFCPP
Chain of CDK5/p35 (Q15078 whole entry partner): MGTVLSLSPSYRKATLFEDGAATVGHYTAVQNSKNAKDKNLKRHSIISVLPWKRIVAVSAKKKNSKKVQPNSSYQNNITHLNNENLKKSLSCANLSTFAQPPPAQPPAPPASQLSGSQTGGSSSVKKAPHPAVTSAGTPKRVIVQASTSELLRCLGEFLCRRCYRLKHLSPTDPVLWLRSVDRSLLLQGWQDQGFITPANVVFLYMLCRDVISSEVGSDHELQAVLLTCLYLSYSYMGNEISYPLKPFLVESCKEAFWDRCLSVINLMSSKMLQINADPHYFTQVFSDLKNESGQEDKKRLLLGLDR
The next test addresses CDK6/CycD3 (Homo sapiens (Human), UniProt Q00534). As to the kind of experiment: CDK6/CycD3 kinase inhibition (Biological Table 1). The test is classed as biochemical.
The target in the next test is CDK4/CycD (Homo sapiens (Human), UniProt P11802). As to the kind of experiment: CDK4/CycD kinase inhibition (Biological Table 1). The test is classed as biochemical.
Chain of CDK4/CycD (P11802 whole entry): as the sequence (P11802 whole entry) above
Chain of CDK4/CycD (P24385 whole entry partner): as the sequence (P24385 whole entry partner) above
For a further test, the target named is CDK7/CycH/MAT1 (Homo sapiens (Human), UniProt P50613). As to the kind of experiment: CDK7/CycH/MAT1 kinase inhibition (Biological Table 2). The test is classed as biochemical.
Chain of CDK7/CycH/MAT1 (P50613 whole entry): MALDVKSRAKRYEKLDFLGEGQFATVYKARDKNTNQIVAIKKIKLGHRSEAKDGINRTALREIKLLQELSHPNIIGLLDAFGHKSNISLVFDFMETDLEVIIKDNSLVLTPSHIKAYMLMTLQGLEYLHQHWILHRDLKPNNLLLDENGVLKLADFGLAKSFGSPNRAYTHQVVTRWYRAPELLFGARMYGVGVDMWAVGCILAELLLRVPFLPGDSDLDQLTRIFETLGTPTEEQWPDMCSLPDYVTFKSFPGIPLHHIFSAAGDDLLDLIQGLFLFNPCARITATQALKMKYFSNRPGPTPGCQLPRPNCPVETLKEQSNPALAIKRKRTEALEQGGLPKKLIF
Chain of CDK7/CycH/MAT1 (P51946 whole entry partner): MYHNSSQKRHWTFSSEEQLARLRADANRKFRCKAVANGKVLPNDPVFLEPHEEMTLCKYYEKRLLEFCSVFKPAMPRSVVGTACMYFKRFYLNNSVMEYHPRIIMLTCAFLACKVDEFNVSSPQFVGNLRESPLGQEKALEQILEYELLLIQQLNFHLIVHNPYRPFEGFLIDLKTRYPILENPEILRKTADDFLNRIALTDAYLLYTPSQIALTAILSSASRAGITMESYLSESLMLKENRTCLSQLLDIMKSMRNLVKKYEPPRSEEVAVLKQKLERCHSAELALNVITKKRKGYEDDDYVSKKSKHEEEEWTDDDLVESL
Chain of CDK7/CycH/MAT1 (P51948 whole entry partner): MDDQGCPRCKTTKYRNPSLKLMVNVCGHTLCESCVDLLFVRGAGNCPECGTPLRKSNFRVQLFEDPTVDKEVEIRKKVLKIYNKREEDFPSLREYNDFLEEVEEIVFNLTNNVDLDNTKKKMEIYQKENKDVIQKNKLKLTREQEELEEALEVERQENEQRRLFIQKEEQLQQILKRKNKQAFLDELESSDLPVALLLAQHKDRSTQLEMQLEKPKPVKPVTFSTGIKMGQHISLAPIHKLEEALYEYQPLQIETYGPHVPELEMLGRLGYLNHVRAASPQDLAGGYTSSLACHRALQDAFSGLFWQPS
Another test deals with CDK5/p25 (Homo sapiens (Human), UniProt Q00535). Briefly: CDK5/p25 kinase inhibition (Biological Table 2). The test is classed as biochemical.
Chain of CDK5/p25 (Q00535 whole entry): as the sequence (Q00535 whole entry) above
In another test the target is CDK2/CycA (Homo sapiens (Human), UniProt P24941). Briefly: CDK2/CycA kinase inhibition (Biological Table 1). It counts as biochemical.

Chain of CDK9/CycT (P50750 whole entry): as the sequence (P50750 whole entry) above
Chain of CDK9/CycT (O60563 whole entry partner): as the sequence (O60563 whole entry partner) above
Chain of CDK6/CycD3 (Q00534 whole entry): as the sequence (Q00534 whole entry) above
Chain of CDK6/CycD3 (P30281 whole entry partner): as the sequence (P30281 whole entry partner) above

On to `CN1CCN(c2cnc(Nc3ncc4cc5n(c4n3)C3(CCCCC3)CNC5=O)nc2)CC1` [Compound 28, 2′-((5-(4-Methylpiperazin-1-yl)pyrimidin-2-yl)amino)-7′,8′-dihydro-6′H-spiro[cyclohexane-1,9′-pyrazino[1′,2′:1,5]pyrrolo [2,3-d]pyrimidin]-6′-one], for which the IC50 was 13.5 µM at CDK2/CyclinA; greater than 100 µM on CDK2/CyclinE; 0.06 µM against CDK6/Cyclin D3; 0.02 µM on CDK4/CyclinD1; 1 µM on CDK9/Cyclin T. Besides, the “population of apoptotic cells” value in the test on Hs68 cells is “greater than 70%”.
As for `CN1CCN(c2ccc(Nc3ncc4c(n3)N3C(CC4=O)C(=O)NCC3(C)C)nc2)CC1` (stereo not shown) [Compound 1, 10,10-dimethyl-2-((5-(4-methylpiperazin-1-yl)pyridin-2-yl)amino)-6,6a,9,10-tetrahydro-5H-pyrazino[1′,2′:1,6]pyrido[2,3-d]pyrimidine-5,7(8H)-dione], the IC50 against CDK9/CycT was greater than 100 µM; against CDK2/CycE, greater than 100 µM; at CDK5/p35, greater than 100 µM; on CDK6/CycD3, 30.6 µM; at CDK4/CycD it was 8.06 µM; against CDK7/CycH/MAT1 it was greater than 100 µM. Moreover, the IC50 on CDK5/p25 and on CDK2/CycA was greater than 100 µM each time.
On to `CCOC(=O)C1C(=O)c2cnc(Nc3ccc(N4CCN(C)CC4)cn3)nc2N2CCCCC12` (stereo not shown) [Compound 8, ethyl 2-((5-(4-methylpiperazin-1-yl)pyridin-2-yl)amino)-5-oxo-6,6a,7,8,9,10-hexahydro-5H-pyrimido[5,4-c]quinolizine-6-carboxylate], for which the IC50 against CDK9/CycT is greater than 100 µM; against CDK2/CycE it was greater than 100 µM; against CDK5/p35 it was greater than 100 µM; against CDK6/CycD3 it was 3.5 µM; against CDK4/CycD, 4.1 µM; on CDK7/CycH/MAT1, greater than 100 µM. Moreover, the IC50 on CDK5/p25 and on CDK2/CycA was greater than 100 µM each time.
For `CN1CCN(c2ccc(Nc3ncc4c(n3)N3C(=NCCC35CCCCC5)C=C4)nc2)CC1` [Compound 9, N-(5-(4-methylpiperazin-1-yl)pyridin-2-yl)-8′,9′-dihydrospiro[cyclohexane-1,10′-pyrido[1,6-a:2,3-d′]dipyrimidin]-2′-amine], the IC50 was greater than 100 µM against CDK9/CycT; greater than 100 µM against CDK2/CycE; greater than 100 µM on CDK5/p35; 1.8 µM against CDK6/CycD3; 2.6 µM at CDK4/CycD; greater than 100 µM at CDK7/CycH/MAT1. The IC50 against CDK5/p25 and at CDK2/CycA was greater than 100 µM each time.
As for `CN1CCN(c2ccc(Nc3ncc4c(n3)N3C(CC4=O)C(=O)NCC34CCCC4)nc2)CC1` (stereo not shown) [Compound 5, 2′-((5-(4-methylpiperazin-1-yl)pyridin-2-yl)amino)-6′,6a′,8′,9′-tetrahydrospiro[cyclopentane-1,10′-pyrazino[1′,2′:1,6]pyrido[2,3-d]pyrimidine]-5′,7′-dione], the IC50 against CDK9/CycT, on CDK2/CycE, against CDK5/p35, against CDK6/CycD3, against CDK4/CycD and against CDK7/CycH/MAT1 was greater than 100 µM throughout. Further, the IC50 against CDK5/p25 and against CDK2/CycA was greater than 100 µM throughout.
For `CN1CCN(c2ccc(Nc3ncc4c(n3)N3C(CC4)C(=O)NCC34CCCCC4)nc2)CC1` (stereo not shown) [Compound 4, 2′-((5-(4-methylpiperazin-1-yl)pyridin-2-yl)amino)-6′,6a′,8′,9′-tetrahydrospiro[cyclohexane-1,10′-pyrazino[1′,2′:1,6]pyrido[2,3-d]pyrimidin]-7′(5′H)-one], the IC50 on CDK9/CycT is greater than 100 µM; against CDK2/CycE it was greater than 100 µM; on CDK5/p35 it was greater than 100 µM; against CDK6/CycD3, 75.9 µM; at CDK4/CycD it was 47.7 µM; at CDK7/CycH/MAT1, greater than 100 µM. The IC50 on CDK5/p25 was greater than 100 µM; against CDK2/CycA, 86.4 µM.
